Counter-ions that a name gives are not always drawn.
What was measured:
MCP-1 = assay: In vitro MCP-1 activity assay (TNF-α stimulated endothelial cells, MCP-1 immunoassay); assay type: cell-based; conditions: Endothelial cell; human endothelial cells stimulated with TNF-α (1 ng/ml), approximately 16 hours, MCP-1 immunoassay of culture media
Protocol: Cultured human endothelial cells were seeded in 96-well plates. On the following day cells were stimulated with TNF-α (1 ng/ml) in the presence or absence of compounds dissolved in DMSO. To establish a dose curve and IC50 for each compound, multiple concentrations in 2-fold increments were used. Cells were exposed to TNF-α and compounds for approximately 16 hours. The next day the cells were visually examined via light microscopy to score for visual signs of toxicity. Cell culture media, diluted 1:10, was analyzed by an MCP-1 immunoassay kit (R & D Systems). This assay is a sandwich immunoassay using immobilized anti-MCP-1 antibody in 96-well plate to capture secreted MCP-1 in cell culture media. Captured MCP-1 is subsequently detected with a horse radish peroxidase-conjugated anti-MCP-1 antibody for color development. Results are expressed as IC50 values (the amount of compound (µM) required to achieve a 50% reduction compared to control (cells stimulated with TNF-α only)).

[1] = test system: human aortic smooth muscle cells; assay: In vitro smooth muscle cell activity assay (3H-thymidine incorporation, serum stimulated); assay type: cell-based; conditions: human aortic smooth muscle cells stimulated with 5% serum
Protocol: Cultured human aortic smooth muscle cells were seeded in 24-well plates. When cells reached 80% confluency, they were made quiescent by changing media to 0.2% serum (as compared to 5% serum in normal culture media) for 48 hours. The cells were then stimulated by addition of 5% serum in the presence or absence of compounds dissolved in DMSO. To establish a dose curve and IC50 for each compound, multiple concentrations in 5-fold increments were used. After 20 hr incubation, 3H-thymidine (0.5 μCi/per well) was added to the cells for 4 hours of labeling. Washed cells were then lysed in NaOH and, the amount of 3H-thymidine incorporation was determined. Results are expressed as IC50 values (the amount of compound (µM) required to achieve a 50% reduction compared to control (cells stimulated with 5% serum only)).

IC50 (MCP-1) | IC50 [1] | melting point | SMILES
5 µM | 400 nM | 94 to 97 °C | COc1cc(C=CC(=O)c2ccc(OC)c(OC)c2OC)cc(-c2cccs2)c1OC [Example 2, 3-[3,4-dimethoxy-5-(thien-2-yl)phenyl]-1-(2,3,4-trimethoxyphenyl)-2-propen-1-one]
 |  | 100 to 105 °C | COc1ccc(-c2cccs2)cc1C=CC(=O)c1ccc(F)c(F)c1 [Example 35, 3-[2-methoxy-5-(thien-2-yl)phenyl]-1-(3,4-difluorophenyl)-2-propen-1-one]
 |  | 30 to 50 °C | COc1ccc(-c2cccs2)cc1/C=C/C(=O)c1ccc(-c2cccs2)cc1OC [Example 58]
 | 1250 nM |  | COc1cc(OCC(=O)O)c(/C=C/C(=O)c2cc(OC)c(OC)c(OC)c2)cc1-c1cc2ccccc2s1 [Example 62, 3-[5-(Benzo[b]thien-2-yl)-2-carboxymethoxy-4-methoxyphenyl]-1-(3,4,5-trimethoxyphenyl)-2-propen-1-one, sodium salt]
 |  | 111 to 113 °C | COc1cc(OC)c(-c2cc3ccccc3s2)cc1C=CC(=O)c1cc(OC)c(OCCN2CCOCC2)c(OC)c1 [Example 43, 3-[5-(benzo[b]thien-2-yl)-2,4-dimethoxyphenyl]-1-[3,5-dimethoxy-4-(2-morpholinoethoxy)phenyl]-2-propen-1-one]
 | 450 nM | 191 to 196 °C (dec.) | COc1cc(OC)c(-c2cc3ccccc3s2)cc1C=CC(=O)c1cc(OC)c(OCC(=O)[O-])c(OC)c1.[Na+] [Example 61, 3-[5-(Benzo[b]thien-2-yl)-2,4-dimethoxyphenyl]-1-(4-carboxymethoxy-3,5-dimethoxyphenyl)-2-propen-1-one, sodium salt]
 |  | 152 to 163 °C | COc1ccc(-c2cccs2)cc1C=CC(=O)c1ccc(Cl)c(Cl)c1O [Example 36, 3-[2-methoxy-5-(thien-2-yl)phenyl]-1-(3,4-dichloro-2-hydroxyphenyl)-2-propen-1-one]
 |  | > 260 °C | COc1ccc(-c2cccs2)cc1C=CC(=O)c1ccc(Cl)c(Cl)c1O.[Na]
 |  | 120 to 124 °C | COc1cc(C=CC(=O)c2ccc(OC)c(OC)c2OC)cc(-c2cc3ccccc3s2)c1OC [Example 49, 3-[5-(benzo[b]thien-2-yl)-3,4-dimethoxyphenyl]-1-(2,3,4-trimethoxyphenyl)-2-propen-1-one]
10 µM | 1150 nM |  | COc1ccc(-c2cccs2)cc1C=CC(=O)c1ccc(OC)c(OC)c1 [Example 9, 3-[2-methoxy-5-(thien-2-yl)phenyl]-1-(3,4-dimethoxyphenyl)-2-propen-1-one]
 |  | 150 to 155 °C | COc1ccc(-c2cccs2)cc1C=CC(=O)c1ccc(I)cc1OC [Example 18, 3-[2-methoxy-5-(thien-2-yl)phenyl]-1-(4-iodo-2-methoxyphenyl)-2-propen-1-one]
 |  | 145 to 153 °C | COc1cc(OC)c(-c2cc3ccccc3s2)cc1C=CC(=O)c1cc(OC)c(OCC(=O)O)c(OC)c1 [Example 44, 3-[5-(benzo[b]thien-2-yl)-2,4-dimethoxyphenyl]-1-(4-carboxymethoxy-3,5-dimethoxyphenyl)-2-propen-1-one]
> 50 µM | 330 nM |  | COc1cc(OC)c(-c2cc3ccccc3s2)cc1/C=C/C(=O)c1cc(OC)c(OC)c(OC)c1 [Example 6, 3-[5-(benzo[b]thien-2-yl)-2,4-dimethoxyphenyl]-1-(3,4,5-trimethoxyphenyl)-2-propen-1-one]
 |  | 150 to 151 °C | COc1cc(C(=O)C=Cc2cc(OC)c(OC)c(-c3cc4ccccc4s3)c2)cc(OC)c1OC [Example 4, 3-[5-(benzo[b]thien-2-yl)-3,4-dimethoxyphenyl]-1-(3,4,5-trimethoxyphenyl)-2-propen-1-one]
 |  | 54 to 73 °C | COc1ccc(-c2cccs2)cc1C=CC(=O)c1cc(OC)c(OCc2cccs2)cc1OC [Example 17, 3-[2-methoxy-5-(thien-2-yl)phenyl]-1-(2,5-dimethoxy-4-(thien-2-ylmethoxy)phenyl)-2-propen-1-one]
 |  | 255 to 257 °C | COc1cc(OCC(=O)O)c(C=CC(=O)c2cc(OC)c(OC)c(OC)c2)cc1-c1cc2ccccc2s1 (as salt: sodium) [3-[5-(benzo[b]thien-2-yl)-2-carboxymethoxy-4-methoxyphenyl]-1-(3,4,5-trimethoxyphenyl)-2-propen-1-one]
 | 1250 nM |  | COc1cc(OC)c(-c2cccs2)cc1C=CC(=O)c1ccc(OC)c(OC)c1OC [Example 41, 3-[2,4-dimethoxy-5-(thien-2-yl)phenyl]-1-(2,3,4-trimethoxyphenyl)-2-propen-1-one]
10 µM | 4530 nM |  | COc1ccc(C(=O)C=Cc2cc(-c3cccs3)ccc2OC)cc1 [Example 11, 3-[2-methoxy-5-(thien-2-yl)phenyl]-1-(4-methoxyphenyl)-2-propen-1-one]
 |  | 97 to 107 °C | COc1cccc(-c2ccc(C(=O)C=Cc3cc(-c4cccs4)ccc3OC)c(OC)c2)c1 [Example 21, 3-[2-methoxy-5-(thien-2-yl)phenyl]-1-[2-methoxy-4-(3-methoxyphenyl)phenyl]-2-propen-1-one]
 | 450 nM | 75 to 80 °C | COc1cc(OC)c(-c2cccs2)cc1C=CC(=O)c1cc(OC)c(OC)c(OC)c1 [Example 5, 3-[2,4-dimethoxy-5-(thien-2-yl)phenyl]-1-(3,4,5-trimethoxyphenyl)-2-propen-1-one]
8 µM | 1530 nM |  | COc1ccc(-c2cccs2)cc1C=CC(=O)c1cc(OC)c(OC)c(OC)c1 [Example 7, 3-[2-methoxy-5-(thien-2-yl)phenyl]-1-(3,4,5-trimethoxyphenyl)-2-propen-1-one]
